Reference: paper PMC10958125 (Clinical and Translational Medicine, 2024)
Read-outs that look alike come from different tables or passages of the source.

Columns and labels:
[1] = tested on: metastatic prostate cancer patients; design: method as in PMID 15470213; conditions: TAX327 trial, cited from earlier work
[2] = tested on: metastatic prostate cancer patients; conditions: cited from earlier work
[3] = human, in vivo
clinical = conditions: human, in vivo, iv, 75 mg/m2
[4] = tested on: metastatic prostate cancer patients; design: method as in PMID 28753384; conditions: FIRSTANA trial, cited from earlier work
[5] = tested on: Circulating endothelial cells (CECs); test: Circulating endothelial cells, flow cytometry; format: in vivo, human
Method: (§1) Vascular endothelial growth factor A (VEGF‐A) was measured on Ethylenediaminetetraacetic acid plasma from subjects 1−12 of the dose escalation cohort, with a commercial sandwich ELISA kit (R&D Systems). Circulating endothelial cells (CECs) were measured with an 11‐colour flow cytometry scheme using a method adopted from a previously published protocol.[36] The definition for CECs was viable cells (alive, intact nucleus) that were positive for surface CD31 and CD34, and that were negative for haematopoietic marker CD45. Additional exploratory markers were CD105 and CD146. […] Samples were collected before the scheduled docetaxel dose for that day.
(§2) Both VEGF‐A and CEC levels were analysed using linear mixed‐effects regression models with a subject‐level random effect included to account for within‐subject correlation. Models were adjusted for the individual's baseline levels in both outcomes. All analyses and hypothesis testing were completed on the log scale and back transformed to estimate fold changes. Analysis was completed in the R environment,[37] with all tests level α = .05. The VEGF‐A levels were near‐linear over time, so time was treated as continuous, and slopes between groups were compared using Wald tests. Levels of CECs were non‐linear over time; therefore, time was treated as a fixed factor in the CEC model, with a time‐by‐dose interaction effect. Pairwise tests of differences between the CEC model‐based estimated means at each time point after zero were completed using the emmeans package.[38] As these analyses are exploratory/hypothesis generating, no multiple comparison adjustments have been made. Simple Bonferroni adjustments would lead to p‐value cutoffs of .01 (five comparisons) and .0033 (15 comparisons) for the VEGF‐A and CEC analyses, respectively.

[6] = tested on: Insulin‐like growth factor binding protein 3 (IGFBP‐3); test: Plasma IGFBP-3, sandwich ELISA; format: in vivo, human; conditions: all lycopene doses, any time point
Method: Insulin‐like growth factor binding protein 3 (IGFBP‐3) levels were measured in duplicate by sandwich ELISA assays using kits from eBioscience in subjects 1–12 of the dose escalation cohort.

[7] = tested on: metastatic prostate cancer patients; format: in vivo; conditions: lycopene alone for 2 weeks from day 1, dose escalation cohort
[8] = Plasma lycopene levels (HPLC); format: in vivo, human
IGF‐1R = IGF‐1R (Homo sapiens, UniProt P08069); test: Ligand-dependent phosphorylation of IGF-1R(Y1131) in PBMCs stimulated ex vivo with rhIGF-1; conditions: patients
IGF‐1R, sequence (P08069 31-1367): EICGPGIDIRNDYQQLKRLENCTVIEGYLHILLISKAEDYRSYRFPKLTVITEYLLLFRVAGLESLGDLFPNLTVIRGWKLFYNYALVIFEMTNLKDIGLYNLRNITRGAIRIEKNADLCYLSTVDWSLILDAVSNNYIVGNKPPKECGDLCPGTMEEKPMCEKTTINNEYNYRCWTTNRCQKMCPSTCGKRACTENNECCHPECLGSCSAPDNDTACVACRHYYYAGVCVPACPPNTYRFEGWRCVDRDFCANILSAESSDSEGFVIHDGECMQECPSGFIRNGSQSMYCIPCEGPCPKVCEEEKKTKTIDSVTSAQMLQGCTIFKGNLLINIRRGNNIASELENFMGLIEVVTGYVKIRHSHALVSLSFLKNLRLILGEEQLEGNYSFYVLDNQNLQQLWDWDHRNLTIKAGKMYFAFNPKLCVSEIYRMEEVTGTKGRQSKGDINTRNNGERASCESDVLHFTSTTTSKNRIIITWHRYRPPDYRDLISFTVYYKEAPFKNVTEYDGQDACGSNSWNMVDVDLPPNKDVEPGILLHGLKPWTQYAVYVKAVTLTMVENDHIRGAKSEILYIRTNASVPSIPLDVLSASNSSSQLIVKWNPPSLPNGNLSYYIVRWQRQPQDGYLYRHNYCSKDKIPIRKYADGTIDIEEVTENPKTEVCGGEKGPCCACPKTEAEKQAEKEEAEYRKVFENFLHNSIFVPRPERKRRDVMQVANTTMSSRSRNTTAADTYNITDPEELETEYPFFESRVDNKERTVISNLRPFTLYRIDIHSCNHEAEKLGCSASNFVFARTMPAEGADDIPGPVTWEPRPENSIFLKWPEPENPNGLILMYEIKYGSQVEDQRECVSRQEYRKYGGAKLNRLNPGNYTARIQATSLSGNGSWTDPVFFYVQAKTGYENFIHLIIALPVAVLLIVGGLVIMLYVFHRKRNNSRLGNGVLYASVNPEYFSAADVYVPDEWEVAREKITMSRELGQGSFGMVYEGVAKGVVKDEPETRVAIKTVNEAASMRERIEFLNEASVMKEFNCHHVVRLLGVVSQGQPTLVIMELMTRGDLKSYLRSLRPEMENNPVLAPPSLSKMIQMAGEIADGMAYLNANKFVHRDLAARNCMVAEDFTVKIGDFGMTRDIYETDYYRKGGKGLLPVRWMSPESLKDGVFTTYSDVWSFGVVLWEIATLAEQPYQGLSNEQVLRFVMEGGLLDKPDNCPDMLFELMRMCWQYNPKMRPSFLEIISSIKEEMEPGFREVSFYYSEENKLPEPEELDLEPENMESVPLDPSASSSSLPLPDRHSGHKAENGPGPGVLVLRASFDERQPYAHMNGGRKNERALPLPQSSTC
Text: Briefly, ligand‐dependent phosphorylation of the IGF‐1R was estimated using an ex vivo assay that utilised peripheral blood mononuclear cells (PBMCs). […] The cells were then lysed, and the quantity of phosphoIGF‐1R(Y1131) was estimated by an ELISA assay (Cell Signalling Technologies). Ligand‐dependent phosphorylation was defined as the ratio of pIGF‐1R(Y1131) in ligand‐stimulated PBMCs to the same parameter for unstimulated PBMCs. […] Thus, the changes in the level of ligand‐dependent phosphorylation over time were analysed by both parametric and non‐parametric methods.
Measurement of IGF-1R (Y1131) phosphorylation in PBMNCs after ex vivo ligand treatment. […] The primary analyte was phosphorylation of the IGF-1R on Y1131, measured by ELISA on lysates of PBMCs treated (or not) with recombinant human IGF-1.
Whole blood (10mL) is collected into an ACD (acid citrate-dextrose) Vacutainer®. Peripheral blood mononuclear cells are collected by density gradient centrifugation using LSM Lymphoprep® and an Accuspin® 50mL tube (Sigma). The mononuclear cells are collected, washed x 2 with serum-free RPMI1640 medium, then resuspended in 1mL of RPMI 1640 medium + 0.1% BSA. Cells are then aliquoted into 1mL microcentrifuge tubes, 0.5mL of cells per tube per condition.
Cells are incubated for 1-2hr at 37C, then rhIGF-1 (Peprotech) is added to 50-500ng/mL final concentration. Incubation continues for 15min at 37C.
Cells are then pelleted and washed with 1mL of cold RPMI 1640 medium (no protein).
The cell pellet is lysed with 120mcL of Cell Signalling® ELISA buffer containing phosphatase inhibitors and protease inhibitors. The lysate can be stored at -80C or assayed immediately.
For total protein measurement follow the BCA method (BioRad).
For IGF-1R(Y1131) ELISA (Cell Signalling® #7302) proceed per kit instructions. […]
The standard will be used as a series of 2-fold dilutions, being diluted with assay buffer from the ELISA kit. […] Results will be expressed as X units of pIGF-1R protein per amount of protein in the lysate. The protein is measured by the BCA method, as mcg/mL.

[9] = tested on: Vascular endothelial growth factor A (VEGF‐A); test: Plasma VEGF-A, sandwich ELISA; format: in vivo, human
Method: as §1, §2

[10] = tested on: metastatic prostate cancer patients

SMILES: CC(=O)O[C@@]12CO[C@@H]1C[C@H](O)[C@@]1(C)C(=O)[C@H](O)C3=C(C)[C@@H](OC(=O)[C@H](O)[C@@H](NC(=O)OC(C)(C)C)c4ccccc4)C[C@@](O)([C@@H](OC(=O)c4ccccc4)[C@H]21)C3(C)C [docetaxel]
- Alopecia, % any ([1]; any grade): 65.1%
- Anaemia, % any ([1]; any grade): 66.5%
- Anorexia, % any ([1]; any grade): 16.6%
- Arthralgia, % any ([1]; any grade): 8.1%
- Cough, % any ([1]; any grade): 12.3%
- Diarrhoea, % any ([1]; any grade): 31.6%
- Dysgeusia, % any ([1]; any grade): 18.4%
- Dyspnoea, % any ([1]; any grade): 15.1%
- Fatigue, % any ([1]; any grade): 53.3%
- Febrile neutropenia, % any ([1]; any grade): 2.7%
- Infection, % any ([1]; any grade): 32.2%
- Nail changes, % any ([1]; any grade): 29.5%
- Nausea, % any ([1]; any grade): 41%
- Neutropenia, % any ([1]; any grade): 40.9%
- Peripheral oedema, % any ([1]; any grade): 18.1%
- Rash/desquamation, % any ([1]; any grade): 6%
- Sensory/motor neuropathy, % any ([1]; any grade): 30.4%
- Stomatitis/pharyngitis, % any ([1]; any grade): 19.6%
- Tearing, % any ([1]; any grade): 9.9%
- Thrombocytopenia, % any ([1]; any grade): 3.4%
- Vomiting, % any ([1]; any grade): 16.9%
- Anaemia, % grade 3+ [1]: 4.9%
- Anorexia, % grade 3+ [1]: 1.2%
- Arthralgia, % grade 3+ [1]: .6%
- Cough, % grade 3+ [1]: 0%
- Diarrhoea, % grade 3+ [1]: 2.1%
- Dysgeusia, % grade 3+ [1]: 0%
- Dyspnoea, % grade 3+ [1]: 2.7%
- Fatigue, % grade 3+ [1]: 4.5%
- Febrile neutropenia, % grade 3+ [1]: 2.7%
- Infection, % grade 3+ [1]: 5.7%
- Nausea, % grade 3+ [1]: 2.7%
- Neutropenia, % grade 3+ [1]: 32%
- Peripheral oedema, % grade 3+ [1]: .3%
- Sensory/motor neuropathy, % grade 3+ [1]: 1.8%
- Stomatitis/pharyngitis, % grade 3+ [1]: .9%
- Tearing, % grade 3+ [1]: .6%
- Thrombocytopenia, % grade 3+ [1]: .6%
- Vomiting, % grade 3+ [1]: 1.5%
- Increased overall survival ([2]; mCRPC): 2.4 months
- Increased overall survival ([2]; mCSPC): 16.8 months
- Plasma docetaxel C max, geometric mean [3]: 2810 ng/mL
- Plasma docetaxel AUClast, geometric mean ([3]; iv, 75 mg/m2): 2810 ng·h/mL
- AUC(0-inf) (clinical): 3020 ng·h/mL
- Alopecia, % any ([4]; any grade): 39%
- Anaemia, % any ([4]; any grade): 99.5%
- Anorexia, % any ([4]; any grade): 17.1%
- Arthralgia, % any ([4]; any grade): 8%
- Constipation, % any ([4]; any grade): 18.1%
- Cough, % any ([4]; any grade): 9.8%
- Diarrhoea, % any ([4]; any grade): 37%
- Dysgeusia, % any ([4]; any grade): 18.1%
- Dyspnoea, % any ([4]; any grade): 9.6%
- Fatigue, % any ([4]; any grade): 28.9%
- Febrile neutropenia, % any ([4]; any grade): 8.3%
- Infection, % any ([4]; any grade): 7.2%
- Nail changes, % any ([4]; any grade): 9%
- Nausea, % any ([4]; any grade): 22.7%
- Neutropenia, % any ([4]; any grade): 89%
- Pain in extremity, % any ([4]; any grade): 9.8%
- Peripheral oedema, % any ([4]; any grade): 20.4%
- Rash/desquamation, % any ([4]; any grade): 5.9%
- Sensory/motor neuropathy, % any ([4]; any grade): 25.1%
- Stomatitis/pharyngitis, % any ([4]; any grade): 13.7%
- Tearing, % any ([4]; any grade): 9.6%
- Thrombocytopenia, % any ([4]; any grade): 32.6%
- Vomiting, % any ([4]; any grade): 11.6%
- Anaemia, % grade 3+ [4]: 5.5%
- Anorexia, % grade 3+ [4]: .3%
- Arthralgia, % grade 3+ [4]: 1%
- Constipation, % grade 3+ [4]: 1%
- Cough, % grade 3+ [4]: 0%
- Diarrhoea, % grade 3+ [4]: 2.3%
- Dysgeusia, % grade 3+ [4]: 0%
- Dyspnoea, % grade 3+ [4]: .3%
- Fatigue, % grade 3+ [4]: .3%
- Febrile neutropenia, % grade 3+ [4]: 8.3%
- Infection, % grade 3+ [4]: 4.1%
- Nausea, % grade 3+ [4]: .8%
- Neutropenia, % grade 3+ [4]: 78.9%
- Pain in extremity, % grade 3+ [4]: 1%
- Peripheral oedema, % grade 3+ [4]: 1.6%
- Sensory/motor neuropathy, % grade 3+ [4]: 2.1%
- Stomatitis/pharyngitis, % grade 3+ [4]: .8%
- Tearing, % grade 3+ [4]: 0%
- Thrombocytopenia, % grade 3+ [4]: 1.6%
- Vomiting, % grade 3+ [4]: .8%

SMILES: CC(C)=CCC/C(C)=C/C=C/C(C)=C/C=C/C(C)=C/C=C/C=C(C)/C=C/C=C(C)/C=C/C=C(\C)CCC=C(C)C [lycopene]
- Change of CEC number vs pre-treatment ([5]; lycopene 30 mg/day + docetaxel/ADT, all time points): decreased
- Change of CEC number vs pre-treatment ([5]; lycopene 90 mg daily + docetaxel/ADT): increased CEC levels at all time points
- Change of CEC number vs pre-treatment ([5]; lycopene 150 mg daily + docetaxel/ADT): significant increase in CECs only on day 57
- Change of plasma IGFBP-3 from pretreatment level [6]: no statistically significant differences
- Adverse events during lycopene alone lead-in [7]: No participant reported any adverse event
- Increase of plasma lycopene concentration from baseline ([8]; 30 mg daily synthetic lycopene with docetaxel): approximately 1.6 fold
- Peak concentration of lycopene in plasma at 150 mg/day compared to 30 and 90 mg/day ([8]; Figure 2B): did not further increase the peak concentration
- Mean lycopene concentration in plasma ([8]; after 99 days of treatment): .82 ± .49 µmol/L
- Mean lycopene concentration in plasma ([8]; baseline): .48 ± .37 µmol/L
- Increase of plasma lycopene during treatment ([8]; baseline to 99 days): 93.4%
- Change of ligand-dependent phosphorylation of IGF1-R(Y1131) (IGF‐1R; 150 mg lycopene daily, day 78, p = .048): borderline decrease
- Change of ligand-dependent phosphorylation of IGF1-R(Y1131) (IGF‐1R; 150 mg lycopene daily, day 99, p = .027): significant decrease
- Change of ligand-dependent phosphorylation of IGF1-R(Y1131) (IGF‐1R; 30 or 90 mg/day lycopene, day 15 to 99): did not show a consistent change
- Change of plasma VEGF-A level over time ([9]; lycopene 30 mg/day + docetaxel/ADT): tended to decrease
- Change of plasma VEGF-A level over time ([9]; lycopene 90 mg/day + docetaxel/ADT): little change
- Change of plasma VEGF-A level over time ([9]; lycopene 150 mg/day + docetaxel/ADT): to increase
- Maximum tolerated dose (MTD) of synthetic lycopene ([10]; in combination with docetaxel 75 mg/m^2 and ADT): 150 mg/day
- Dose-limiting toxicity ([10]; in vivo): No DLT
- Probability of toxicity, dose level 1 ([10]; male, human, in vivo): 0
- Probability of toxicity, dose level 2 ([10]; male, human, in vivo): .009
- Probability of toxicity, dose level 3 ([10]; male, human, in vivo): .106
